Results published in ChEMBL document CHEMBL5154787 (J Med Chem, 2022).

What was measured:
[1] = molecular target: T1, AP2-associated protein kinase 1 (Homo sapiens, UniProt Q2M2I8); assay: Inhibition of bacterially expressed GST-Xa-tagged human AAK1 using 5-FAM-labelled Aha-KEEQSQITSQVTGQIGWR-NH2 peptide as substrate incubated for 3 hrs in presence of ATP by electrophoretic analysis
[2] = Metabolic stability in human liver microsomes assessed as parent compound remaining at 0.5 uM incubated for 10 mins in presence of NADPH by LC-MS/MS analysis; format: ADME, Microsome; settings: read-out: Stability
[3] = Metabolic stability in rat liver microsomes assessed as parent compound remaining at 0.5 uM incubated for 10 mins in presence of NADPH by LC-MS/MS analysis; format: ADME, Microsome; settings: read-out: Stability
Cytochrome P450 3A4 = Cytochrome P450 3A4 (Homo sapiens, UniProt P08684); assay: Inhibition of CYP3A4 (unknown origin) incubated for 10 mins in presence of NADPH by LC-MS/MS analysis; format: ADME
[4] = Metabolic stability in mouse liver microsomes assessed as parent compound remaining at 0.5 uM incubated for 10 mins in presence of NADPH by LC-MS/MS analysis; format: ADME, Microsome; settings: liver microsomes, read-out: Stability
[5] = molecular target: AP2-associated protein kinase 1 (Mus musculus, UniProt Q3UHJ0); assay: Displacement of 3H-LP-927443 from AAK1 in C57BL6 mouse brain homogenate assessed as inhibition constant incubated for 1 hr by liquid scintillation counter analysis; format: tissue-based
[6] = molecular target: T1, AP2-associated protein kinase 1; assay: Inhibition of full length human AAK1 expressed in HEK293F cells assessed as suppression of AP2 phosphorylation measured after 3 hrs by Western blot analysis based cellular assay; format: cell-based

Sequence of Cytochrome P450 3A4 (P08684 whole entry): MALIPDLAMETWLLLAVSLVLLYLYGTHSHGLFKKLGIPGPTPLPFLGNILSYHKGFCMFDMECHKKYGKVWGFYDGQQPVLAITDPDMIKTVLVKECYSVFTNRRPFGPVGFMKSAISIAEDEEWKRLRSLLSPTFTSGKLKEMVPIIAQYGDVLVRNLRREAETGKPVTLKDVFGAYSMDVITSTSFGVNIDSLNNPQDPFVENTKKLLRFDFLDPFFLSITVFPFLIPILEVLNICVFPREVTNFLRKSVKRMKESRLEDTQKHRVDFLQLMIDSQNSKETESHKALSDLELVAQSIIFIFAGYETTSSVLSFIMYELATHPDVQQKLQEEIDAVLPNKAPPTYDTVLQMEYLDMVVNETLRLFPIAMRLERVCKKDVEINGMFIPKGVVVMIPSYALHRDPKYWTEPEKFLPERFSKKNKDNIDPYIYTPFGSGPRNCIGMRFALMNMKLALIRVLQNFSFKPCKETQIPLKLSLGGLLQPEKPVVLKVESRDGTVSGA
Sequence of AP2-associated protein kinase 1 (Mus musculus, UniProt Q3UHJ0) (Q3UHJ0 whole entry): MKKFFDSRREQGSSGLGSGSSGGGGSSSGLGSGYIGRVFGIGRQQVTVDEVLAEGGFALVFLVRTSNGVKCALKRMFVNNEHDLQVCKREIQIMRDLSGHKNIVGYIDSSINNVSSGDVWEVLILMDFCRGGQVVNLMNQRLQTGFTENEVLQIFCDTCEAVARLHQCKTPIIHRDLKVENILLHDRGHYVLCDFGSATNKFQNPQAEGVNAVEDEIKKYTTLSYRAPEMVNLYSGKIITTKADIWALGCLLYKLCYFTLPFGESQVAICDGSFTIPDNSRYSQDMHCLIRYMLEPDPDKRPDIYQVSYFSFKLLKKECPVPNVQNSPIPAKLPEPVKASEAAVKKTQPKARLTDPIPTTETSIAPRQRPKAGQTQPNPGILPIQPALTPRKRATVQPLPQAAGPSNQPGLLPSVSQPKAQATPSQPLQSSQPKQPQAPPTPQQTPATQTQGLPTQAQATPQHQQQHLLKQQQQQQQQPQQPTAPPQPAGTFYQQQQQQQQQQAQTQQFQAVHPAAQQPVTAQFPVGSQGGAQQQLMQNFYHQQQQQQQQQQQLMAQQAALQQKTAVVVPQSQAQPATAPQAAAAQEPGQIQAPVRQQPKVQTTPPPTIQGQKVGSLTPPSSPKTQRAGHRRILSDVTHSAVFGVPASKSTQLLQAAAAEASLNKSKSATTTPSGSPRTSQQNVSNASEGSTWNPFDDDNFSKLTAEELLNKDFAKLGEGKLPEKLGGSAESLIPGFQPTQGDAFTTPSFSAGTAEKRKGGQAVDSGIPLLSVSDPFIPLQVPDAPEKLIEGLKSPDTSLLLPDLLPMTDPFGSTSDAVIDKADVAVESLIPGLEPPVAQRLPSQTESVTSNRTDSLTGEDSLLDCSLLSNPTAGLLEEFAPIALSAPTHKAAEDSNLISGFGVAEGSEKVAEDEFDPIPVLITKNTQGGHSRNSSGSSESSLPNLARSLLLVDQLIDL
T1 sequence (Q2M2I8 whole entry): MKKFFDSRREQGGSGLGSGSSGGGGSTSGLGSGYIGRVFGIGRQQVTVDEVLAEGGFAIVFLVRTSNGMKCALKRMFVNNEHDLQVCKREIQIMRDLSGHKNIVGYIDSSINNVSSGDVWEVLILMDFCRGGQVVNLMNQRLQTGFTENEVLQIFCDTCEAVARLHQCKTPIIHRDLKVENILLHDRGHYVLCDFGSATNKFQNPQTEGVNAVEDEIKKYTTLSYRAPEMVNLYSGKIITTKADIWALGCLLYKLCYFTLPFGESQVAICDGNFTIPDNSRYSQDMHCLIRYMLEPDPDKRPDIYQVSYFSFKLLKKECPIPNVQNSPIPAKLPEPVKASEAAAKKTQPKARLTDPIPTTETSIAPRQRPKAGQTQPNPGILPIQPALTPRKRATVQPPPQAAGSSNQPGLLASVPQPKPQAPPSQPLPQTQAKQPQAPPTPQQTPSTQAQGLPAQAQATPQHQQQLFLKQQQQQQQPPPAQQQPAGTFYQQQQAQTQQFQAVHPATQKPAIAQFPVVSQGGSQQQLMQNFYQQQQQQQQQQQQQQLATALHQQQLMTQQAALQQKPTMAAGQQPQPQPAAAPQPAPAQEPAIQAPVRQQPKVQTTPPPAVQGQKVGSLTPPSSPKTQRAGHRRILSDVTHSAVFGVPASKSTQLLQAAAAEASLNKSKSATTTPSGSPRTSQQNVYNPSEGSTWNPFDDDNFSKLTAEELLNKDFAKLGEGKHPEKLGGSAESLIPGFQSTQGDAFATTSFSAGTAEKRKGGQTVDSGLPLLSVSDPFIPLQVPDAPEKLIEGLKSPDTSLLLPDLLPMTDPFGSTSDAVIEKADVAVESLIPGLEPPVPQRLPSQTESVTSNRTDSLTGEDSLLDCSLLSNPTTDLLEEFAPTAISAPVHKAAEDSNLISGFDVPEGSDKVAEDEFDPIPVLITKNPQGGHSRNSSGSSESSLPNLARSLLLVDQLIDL

Compound | IC50 [1] [nM] | remaining at 10 min, 0.5 µM [2] [%] | remaining at 10 min, 0.5 µM [3] [%] | IC50 (Cytochrome P450 3A4) [nM] | remaining at 10 min, 0.5 µM [4] [%] | Ki [5] [nM] | IC50 [6] [nM]
CC(C)C[C@H](N)COc1ccc(-c2ccnc(NCc3ccccc3)c2)cc1 | 127 | – | – | – | – | – | –
CC(C)C[C@](C)(N)COc1cnc(-c2ccnc(Cl)c2)cc1Cl | – | 86 | 98 | > 20000 | 92 | – | –
COC(=O)Nc1cc(-c2cc(OC)c(OC[C@@](C)(N)CC(C)C)cn2)ccn1 | 3.5 | 91 | 96 | > 20000 | 100 | – | –
COC(=O)Nc1cc(-c2cc(Cl)c(OC[C@@](C)(N)CC(C)C)cn2)ccn1 | 1.1 | 96 | 99 | > 20000 | 87 | 0.11 | –
Cc1cc(-c2cc(C(F)(F)F)c(OC[C@@](C)(N)CC(C)C)cn2)ccn1 | 1.2 | 90 | 75 | > 20000 | 65 | – | –
COC(=O)Nc1cc(-c2cc(C(F)(F)F)c(OC[C@@](C)(N)CC(C)C)cn2)ccn1 | 0.4 | 80 | 79 | 5300 | 78 | – | 0.4
Cc1cc(-c2cc(C)c(OC[C@@](C)(N)CC(C)C)cn2)ccn1 | 19 | 79 | 72 | – | 72 | 4.7 | –
COC(=O)Nc1cc(-c2cnc(OC[C@@](C)(N)CC(C)C)cc2C)ccn1 | 490 | 98 | 87 | > 20000 | 69 | 41 | –
COC(=O)Nc1cc(-c2ccc(OC[C@@](C)(N)CC(C)C)c(CO)c2)ccn1 | – | 91 | 100 | > 20000 | 95 | 0.63 | 3.9
COC(=O)Nc1cc(-c2ccc(OC[C@@](C)(N)CC(C)C)nc2)ccn1 | 28 | 100 | 96 | > 20000 | 79 | 4.9 | –
COC(=O)Nc1cc(-c2cc(C(F)F)c(OC[C@@](C)(N)CC(C)C)cn2)ccn1 | 0.4 | 79 | 87 | > 20000 | 63 | 0.07 | –
COC(=O)Nc1cc(-c2ccc(OC[C@@](C)(N)CC(C)C)cn2)ccn1 (racemic) | 23 | 93 | 100 | > 20000 | 93 | 18 | –

Next, values leading:

IC50 [1] [nM] | remaining at 10 min, 0.5 µM [2] [%] | remaining at 10 min, 0.5 µM [3] [%] | IC50 (Cytochrome P450 3A4) [nM] | remaining at 10 min, 0.5 µM [4] [%] | Ki [5] [nM] | IC50 [6] [nM] | Compound
1.1 | 82 | 94 | > 20000 | 71 | 0.2 | – | COC(=O)Nc1cc(-c2ccc(OC[C@@](C)(N)CC(C)C)c(F)c2)ccn1
– | 94 | 97 | 800 | 75 | 2.5 | 6.8 | CC(=O)Nc1cc(-c2cc(F)c(OC[C@@H](N)CC(C)C)c(Cl)c2)ccn1
4.6 | – | – | – | – | 0.9 | 8.1 | CC(=O)Nc1cc(-c2ccc(OC[C@@H](N)CC(C)C)cc2)ccn1
21 | – | – | – | – | 13 | – | CC(C)C[C@H](N)COc1ccc(-c2ccnc(N)c2)cc1
– | 90 | 100 | 1300 | 90 | 27 | – | CC(=O)Nc1cc(-c2cc(F)c(OC[C@@H](N)CC(C)C)c(F)c2)ccn1
1.2 | 92 | 84 | 2100 | 80 | – | – | COC(=O)Nc1cc(-c2ccc(OC[C@@H](N)CC(C)C)c(F)c2)ccn1
